Results on one compound are retold here after US10709784B2, “Metal chelating compositions and methods for controlling the growth or activities of a living cell or organism” (CHELATION PARTNERS INCORPORATED, priority 2011, dated 2020).

Like-named read-outs stand apart in the source and are kept apart here.

The subject of test [1] is Clinical isolates of Staphylococcus aureus. In words: Growth inhibition of clinical isolates in MHB (turbidity 600 nm). In kind it is cell-based. The note with it: over 7 mM Fe binding equivalents, overnight. The text has this: Clinical isolates of Staphylococcus aureus as obtained from human infections were obtained and are obtainable from the culture collection of Warren Grubb, Curtin University, Perth, Australia. It should be noted that the clinical isolates as obtained from patients at the Royal Perth Hospital in Perth Australia can be expected to have strong similarities to other clinical isolates of this bacterium as obtained elsewhere in the world as the genetic determinants of antibiotic resistance characteristics in Staphylococcus aureus are now generally understood. Thus, similar results to those shown in examples 14-17 can be expected with other clinical isolates as obtained elsewhere and having similar antibiotic resistance patterns to those tested for these examples. […]
A range of dilutions of the deferiprone or soluble chelating composition was prepared in MHB in test tubes so as to provide a range of added iron chelating capacity as measured in Fe binding equivalents. […] The tubes were incubated at an angle on a reciprocating shaker at 37° C. overnight and the growth results were scored as a percentage of growth based on measured turbidity at a wavelength of 600 nm with a spectrophotometer of the test sample, as compared to a control samples that had received no added deferiprone or soluble chelating composition. […]

The subject of the next test is P. aeruginosa. In words: MIC of chelators in Fe-restricted RPMI. In kind it is cell-based, Pseudomonas aeruginosa. The method, then:
(§1) Soluble chelating compositions prepared as in example 4 and example 6 as well as the commercially clinically used low molecular weight (<1500 Da) chelators desferal (Novartis Pharmaceutical Company) and deferiprone (Apotex Pharmaceutical Company) were tested as to their MICs against representative pathogenic bacterial species in RPMI medium that had been treated as in example 38 but to which Fe was re-added to known concentrations that permitted growth of the bacteria under partially Fe restrictive conditions, i.e., so as to simulate the low Fe environmental supply available during infection by these bacteria in man or other animals. MIC testing was done in a manner similar to that described for example 15 but with test series being conducted in multi-well microtiter plates, each well providing a separate treatment test.
(§2) The clinically used chelators were not inhibitory in the case of Pseudomonas aeruginosa with no inhibition observed at the highest concentration tested (300 μg/ml for desferal and 100 μg/ml for deferiprone). Staphylococcus aureus was not inhibited by desferal and was inhibited by deferiprone to a lesser extent than for the soluble compositions of the present invention. Conversely, Escherichia coli was not inhibited by deferiprone but was inhibited substantially by desferal.

Test [2] relates to Candida albicans ATCC 10231. As to the kind of experiment: Growth with chelating materials of different molecular weight, 84 hours. In kind it is cell-based. The note with it: 30° C., defined medium without added iron, FIG. 8. The method, then:
Candida albicans ATCC 10231 was tested for its sensitivities to: the medical chelator deferiprone (#1 in the graph of FIG. 8) (a product of Apotex Pharmaceuticals); the precursor chemicals used for the preparation of soluble chelating compositions of the present invention, including 3-hydroxy-2-methyl-4-pyrone (#2 in the graph of FIG. 8), AHMP as from Example 1 (#3 in the graph of FIG. 8) and MAHMP as from Example 2 (#4 in the graph of FIG. 8) and also the soluble chelating composition as from Example 4 (#5 in the graph of FIG. 8). The yeast was grown in defined medium as for Example 18 with no additional added iron (i.e., the only but adequate Fe available for the yeast was contributed from being present along with the other added medium components). Growth of the yeast in the defined media with added test chelating materials was compared to control samples that had not received any of the chelating materials following 84 hours of incubation and growth at 30° C. […] These chelators being internalized by the yeast were incapable of restricting iron supply to the yeast cells. […] Thus, low molecular weight chelators such as deferiprone and similar compounds permitted growth while the soluble chelating composition that contained functional groups similar to deferiprone but was a molecular weight higher than 1500 Daltons restricted growth, eventhough the various compounds tested were each capable of binding iron through their pyridinone functionality.

A further test deals with S. aureus. In words: MIC of chelators in Fe-restricted RPMI. The class given is cell-based. The note with it: Staphylococcus aureus. Here is the method: as §1, §2
Test [3] has as its system antibiotic resistant strains of Staphylococcus aureus. As to the kind of experiment: NCCLS MIC antibiotic sensitivity with added chelator. The class given is cell-based. The note with it: strain WBG525. The method, then:
Sensitive or antibiotic resistant strains of Staphylococcus aureus (S. aureus) were grown on blood agar plates overnight at 37° C. Four to six individual colonies of each strain were harvested into Mueller-Hinton broth (MHB) and incubated at 37° C. until they reached an optical density equal to or exceeding a 0.5 McFarland standard. The culture was diluted with MHB to equal 0.5 McFarland standard. Dilutions (10^−1) of these standards were used for inocula. Various stains of antibiotic resistant Staphylococcus aureus were used for these tests as shown in the results below. It should be appreciated that growing the bacterial strains on blood agar and then in MHB ensured the inoculum was not restricted for iron prior to the test but rather the bacterial cells were with ample endogenous iron supply.
A range of two-fold dilutions of a test antibiotic was prepared in MHB. […] Soluble and insoluble chelating compositions, as prepared in Example 6 or Example 5, or the free iron chelating agent deferiprone were added to the antibiotic containing tubes at known concentrations of iron binding capacity (referred to as iron binding equivalents) to allow direct comparison of the different compositions or free chelator. The final volume per tube was 500 μl. Bacterial inoculum, 25 μl of the 10^−1 dilutions of the appropriate S. aureus strain was added to each tube. The tubes were incubated at an angle on a reciprocating shaker at 37° C. overnight and results were scored as growth based on turbidity or no growth (lack of turbidity). The Minimum Inhibitory Concentration (MIC) for the antibiotic was determined from the growth results.
A series of tests was set up as in Example 15 with various antibiotic anti-cellular agents. The clinically isolated strains were obtained from the culture collection of Warren Grubb, Curtin University, Perth, Australia.
A series of antibiotic sensitivity tests was set up as in example 16 utilizing the soluble chelating compositions as prepared in Example 6. Separate test series with different clinically isolated Staphylococcus aureus strains, as obtained from the culture collection of Warren Grubb, Curtin University, Perth, Australia, and various antibiotics were employed but for each series a control test comprising addition of iron sufficient to supply two times the chelating capacity of the supplied chelating composition was also included.

A further test concerns E. coli. As to the kind of experiment: MIC of chelators in Fe-restricted RPMI. The class given is cell-based, Escherichia coli. The method, then:
as §1, §2

Test [4] is described as follows: Overall Fe association constants. In kind it is binding. The note with it: Fe (III). The text has this: Measurement of the Fe binding strengths can be measured and compared for different chelating materials.

What is called MIC is the smallest concentration in the dilution series that meets the test's criterion for growth inhibition. Consider `Cc1c(O)c(=O)ccn1C` [Deferiprone, 1,2-dimethyl-3-hydroxy-pyridin-4-one], for which, in test [1], the inhibition of growth entry is listed as “about 15%”. In addition, the MIC in the test with P. aeruginosa (Pseudomonas aeruginosa, treated RPMI with 0.02 μM Fe, read-out: MIC) was greater than 100 µg/mL; with P. aeruginosa (treated RPMI with 0.09 μM Fe), greater than 100 µg/mL; in the test on S. aureus (treated RPMI with 0.02 μM Fe), 12.5 µg/mL; in the test with S. aureus (treated RPMI with 0.09 μM Fe), 25 µg/mL; in the test on E. coli (Escherichia coli, treated RPMI with 0.02 μM Fe, read-out: MIC), greater than 100 µg/mL; with E. coli (treated RPMI with 0.09 μM Fe), greater than 100 µg/mL. In addition, the “growth of the yeast compared to control” value in test [2] is given as “did not substantially restrict growth”. The “MIC Streptomycin” value in test [3] (chelator added 7.4 mM Fe binding equivalents, * slight growth <5% of control turbidity at 640 μg/ml) is reported as >640* μg/ml. Also, the “growth at 640 μg/ml streptomycin” value in test [3] (chelator added 15 mM Fe binding equivalents) is on record as “still allowed slight growth”. Besides, the “Log 10 K(assoc)” value in test [4] is reported as 36.
